From article PMC5859250, “Contribution of transformation products towards the total herbicide toxicity to tropical marine organisms” (Scientific Reports, 2018)
Converted amounts (≈) assume the structure as drawn. “Also recorded” adds a separate entry of the source.

Key:
[1] = test system: prawn (Penaeus monodon) larvae; assay: Prawn larvae assay, metamorphosis of nauplii into protozoea (24 h static); type: in vivo
Method: The giant tiger prawn (Penaeus monodon) can be found throughout the tropical Indo-Pacific region and can be obtained from aquaculture facilities and has a well-described life cycle. The aim of the larval prawn assay was to determine whether the herbicides and transformation products inhibit early naupliar development. Prawn eggs hatch into their first larval stage (nauplii), typically 12–15 h after spawning. During development the nauplii are lecithotrophic, and over the course of the next 36 h, nauplii pass through 6 sub-stages before metamorphosing into protozoae[67],[68].
Freshly hatched nauplii were harvested by light attraction over 30 min, and washed and aerated for 10 min with seawater, and transported to AIMS in Townsville, Queensland. […] The toxicity assays were performed in incubator shakers (set to 30 °C) under very low light and with gentle shaking to prevent individuals adhering to the side of experimental containers.
The larval stock was gently concentrated via reverse-gravity filtration to a higher density before dispensing 8–10 individuals per 20 ml glass scintillation vials. Additional positive control treatments in the form of 4 concentrations of copper II chloride solution (2 to 900 µg l^−1 Cu), were included for test validation. The static assay was terminated after 24 h and 10% seawater formalin was added as a preservative for later microscopy. Metamorphosis was considered successful when nauplii had developed into protozoea.
(§1) The model was constrained by applying a lower limit of 0% inhibition and all curves were tested for normality of the residuals and a replicate test was applied to assess the goodness of fit[36]. The probability that ICX values generated by the logistic curves were statistically different between parent and aged herbicide solutions was tested by applying the F test in Graph Pad Prism v6. ICXs were considered different when p < 0.05. Where inhibition data could not be fitted to logistic curves, one-way analysis of variance (ANOVA) was performed to identify treatments which caused significant (p < 0.05) inhibition comparison with control treatments (NCSS v9, Utah, USA). The larval prawn experimental data was arcsine square root transformed prior to statistical analysis.

[2] = test system: Navicula sp.; set-up: method as in PMID 20800855; conditions: cited from earlier work
[3] = test system: Nephroselmis pyriformis; set-up: method as in PMID 20800855; conditions: cited from earlier work
[4] = test system: Dunaliella sp.; assay: Microalgal PAM fluorometry assay, inhibition of ∆F/Fm′ (24 h, 96-well plate); type: cell-based; conditions: for LOEC, effect on ∆F/Fm′ / NOEC, effect on ∆F/Fm′: pure transformation product, ANOVA p < 0.05
Text: Microalgae play a critical role in the marine food web and have been used in a number of sensitive assays for the assessment of toxicity of both herbicides and their transformation products[13],[16],[60]. High throughput 96 well plate designs allow for increased replication and a wide range of concentrations especially when paired with pulse amplitude modulation (PAM) fluorometry[50],[61]. PAM fluorometry measures chlorophyll fluorescence and can be used to calculate inhibitions of effective quantum yield ∆F/Fm′, which is proportional to reduced photosynthetic efficiency[62] and growth in microalgae[63] and can be plotted against toxicant concentrations to derive concentrations that inhibit ∆F/Fm′ by 10, 20 and 50% (IC10, IC20 and IC50). In the present study the green algae (Dunaliella sp.) and coral symbiont (Symbiodinium sp.) were exposed to herbicides and aged herbicide solutions for 24 h in a 96-well plate format. A Maxi-Imaging-PAM (I-PAM) (Walz, GmbH Germany) was used to measure inhibition of ∆F/Fm′ using settings provided previously[36] and below.
Symbiodinium cells were isolated from coral by air blasting branches of Acropora tenuis colonies collected (collected under the permit G10-33440.1) at 2–5 m depth in Nelly Bay, Magnetic Island, GBR[36]. Symbiodinium cells were inoculated into sterile IMK growing media, the culture purified, DNA extracted, and Clade C1 identified as published previously[64],[65]. Cultures were maintained at 26 °C, 60 µE PAR, 14:10 light:dark photoperiod inside environmental chambers (Steridium e500). The Dunaliella sp. (CS-353) (Chlorophyceae) was obtained from the CSIRO Collection of Living Microalgae (CCLM). The algae was subcultured and grown in F2 media. For the toxicology assays, an exponentially growing culture was employed[63] and density adjusted by hemocytometry under 10× magnification. Day 7 sub-cultures were used throughout the experiment.
Herbicide solutions were delivered into each treatment plate using a Perkin Elmer Janus liquid handling system. Each well of the black 96-well plates (Perkin Elmer) received 100 µl herbicide solution as well as 100 µl of algal suspension (added via multi-channel pipette) and the solution was gently mixed. […] Each plate included a 3 µg l^−1 positive diuron control (n = 4) to confirm consistent sensitivities among the replicate algal subcultures. Treatments positions were randomised across the plates in duplicate[50],[61],[66]. Symbiodinium culture plates were incubated over a 12:12 h light:dark cycle at 26 °C and 60–70 µmol photons m^−2 s^−1 and Dunaliella sp. Plates incubated at: 26 °C and 130 µmol photons m^−2 s^−1. Microalgae were exposed for 24 h prior to PAM measurements. Samples were subjected to the 50 µmol photons m^−2 s^−1 actinic light for 1 min prior to measurement in the Maxi-IPAM (Actinic light = 1, ML = 10, ML frequency = 8, gain = 2 and damping = 1).
as §1

[5] = test system: Phaeodactylum tricornutum; set-up: method as in PMID 20800855; conditions: cited from earlier work
[6] = test system: Cylindrotheca closterium; set-up: method as in PMID 20800855; conditions: cited from earlier work
[7] = test system: Brachionus plicatilis; set-up: method as in PMID 1722733; conditions: cited from earlier work
[8] = test system: Brachionus calyciflorus; set-up: method as in PMID 1722733; conditions: cited from earlier work
[9] = test system: Diporeia spp.; set-up: method as in PMID 19533344; conditions: cited from earlier work
[10] = test system: Hyalella azteca; set-up: method as in PMID 19533344; conditions: cited from earlier work
[11] = Penaeus monodon (giant tiger prawn), in vivo, 24 h
[12] = 24 h, vs solvent control, ANOVA p < 0.05, aged solutions as concentration of parent herbicide

| SMILES | LOEC, prawn larval metamorphosis [1, 11] | Effect on prawn larval metamorphosis (in words) ([1]; in vivo) | IC10 [2] | IC10 [3] | IC20 ([4]; 24 h, read-out: IC20 parent (inhibition of ∆F/Fm′ by 20%)) | IC10 parent (inhibition of ∆F/Fm′ by 10%) ([4]; Dunaliella sp., 24 h, pure compound) | Inhibition of ∆F/Fm′ ([4]; Dunaliella sp., evident at 56 µg l^−1) | LOEC, effect on ∆F/Fm′ ([4]; Dunaliella sp.) | NOEC, effect on ∆F/Fm′ ([4]; Dunaliella sp.) | IC10 [5] | IC10 [6] | LOEC, prawn larval metamorphosis [1, 12] | NOEC, prawn larval metamorphosis [1, 12] | Inhibition of ∆F/Fm′ (in words) ([4]; Dunaliella sp., concentrations up to 273 µg l^−1) | LC50 [7] | LC50 [8] | 96-hour LC50 [9] | Inhibition of ∆F/Fm′ ([4]; Dunaliella sp., 458 µg l^−1, significant (ANOVA, p < 0.05)) | 96-hour LC50 [10] |
| --- | --- | --- | --- | --- | --- | --- | --- | --- | --- | --- | --- | --- | --- | --- | --- | --- | --- | --- | --- |
| CC(C)Nc1nc(N)nc(Cl)n1 [DEA, desethylatrazine] | 3.8 µg/L | significantly inhibiting metamorphosis at all concentrations tested | 111 µg/L (≈ 0.592 µM) | 26.6 µg/L (≈ 0.142 µM) | 0.31 µg/mL (≈ 1.65 µM) | 157 (142–173) µg l^−1 | 9–35% | 55.63 µg/L | 33.30 µg/L | 46 µg/L (≈ 0.245 µM) | 102 µg/L (≈ 0.544 µM) |  |  |  |  |  |  |  |  |
| Nc1ccc(Cl)c(Cl)c1 [3,4-DCA, 3,4-dichloroaniline] |  |  |  |  |  |  |  | >273.41 µg/L | 273.41 µg/L |  |  | 188 µg/L | 54 µg/L | no significant inhibition; also recorded: did not inhibit ∆F/Fm′ | ~ 60 mg l^−1 | ~ 60 mg l^−1 |  |  |  |
| CCNc1nc(N)nc(Cl)n1 [DIA, desisopropylatrazine] | 3.5 µg/L | significantly inhibiting metamorphosis at all concentrations tested |  |  |  |  |  | 458.31 µg/L | 148.97 µg/L |  |  |  |  |  |  |  | > 3000 µg/L | < 8% | > 3000 µg/L |
